According to patent EP0663826B1, “AMINO ACIDS CONTAINING PARENTERAL FORMULATIONS FOR THE TREATMENT OF HYPOTENSION AND RELATED PATHOLOGIES” (BOARD OF REGENTS THE UNIVERSITY OF TEXAS SYSTEM, priority 1991, dated 1993):

Legend:
[1] = tested on: hypotension associated with the administration of TNF in the dog; experiment: TNF-induced hypotension in the dog; assay type: in vivo, dogs
Method: Recombinant human TNF, specific activity 2 x 10^7 units/mg, was from the Dainippon Chemical Corporation, Tokyo, Japan. TNF was administered at a dose of 10 µg//kg in a volume of 10 ml of phosphate buffered saline containing 17 mg/ml of dog albumin. […] Arginine was obtained from Sigma Chemical Company, St. Louis, Mo.
Four conditioned mongrel dogs, 2 males and 2 females, weighing 28 to 30 kg, were studied. Care of the animals were in accordance with the recommendations of the American Association for Accreditation of Laboratory Animals [DHEW(DHHS) publication no. (NIH) 78-23, revised, 1978]. On the day of the experiment, the dogs were fasted overnight. They were anesthetized with phenobarbital (25 mg/kg). The animals were then intubated orally with a #10 fr. endotracheal tube and ventilated with a Harvard pump ventilator at a rate of 14 breaths per minute and a tidal volume of 15 ml/kg. An arterial line was percutaneously placed in the femoral artery on the day of the experiment.
Mean (electronic) and phasic systemic arterial pressures (SAP) were continuously recorded on a Hewlett-Packard recording system (model 7758B) using strain gauge manometers (Hewlett-Packard model 1290A) which were connected to the arterial line. Heart rate (HR) was determined from an EKG tracing and continuously recorded on the Hewlett-Packard recording system. Oxyhemoglobin saturation (SaO2) was obtained using a pulse oximeter (BIOX 111, Boulder, CO). Continuous time-series records of SAP, HR, and SaO2 were obtained using a Lab Master analog-to-digital convertor (16 channel, 12 bit, 30 kHz; Scientific Solutions, Inc.) sampling at 55 Hz and storing the 6 sec averages on a magnetic disk.

[2] = tested on: endotoxin-induced shock in dogs; experiment: Endotoxin-induced hypotension in dogs (with nitroglycerin and control dogs); assay type: in vivo
Method: Animals: Studies were carried out on 12 conditioned mongrel dogs (9 males and 3 females) weighing 22-32 kg (avg=25.3 kg). Animal care was in accordance with the recommendations of the American Association for Accreditation of Laboratory Animal Care, and met all standards prescribed by the Guide for the Care and Use of Laboratory Animals (Guide for the Care and Use of Laboratory Animals (1978) Dept. of Health, Education and Welfare, Washington, D.C. (Publ. No. 78-23). Animal protocols were approved by The University of Texas Animal Welfare committee. The dogs were fasted overnight prior to the day of experimentation. They were anesthetized with sodium pentobarbital (25 mg/kg i.v.). Dogs were then endotracheally intubated and ventilated with a piston-driven respirator (Harvard instruments) using room air at a tidal volume of 15 ml/kg and at a rate of 12 to 14 breaths per minute, adjusted to achieve a normal arterial pH and pCO2 (Instrumentation Laboratories lL1302 pH/Blood Gas Analyzer). Catheters were placed percutaneously into the femoral and pulmonary arteries; In the latter, a flow-directed thermal-dilation catheter was used (Abbott Critical Care Systems).
Physiologic measurements: Mean SAP and heart rate were continuously monitored (Parametron 7048 Monitoring System, Roche) and stored on a magnetic disk using an analog-to-digital converter (Scientific Solutions, Inc.). Cardiac output (CO) was determined as the mean of six measurements by thermal-dilution. Systemic vascular resistance was calculated as (SAP X80)/CO and expressed as dynes-sec/cm^5 (kg/s·cm^4).
Protocol: After the blood pressure and heart rate stabilized, endotoxin (40 µg/kg, in 10 ml of phosphate-buffered saline (PBS), pH 7.4) was infused i.v. over 2 minutes. This dose of endotoxin typically induces severe and often lethal cardiovascular collapse in the dog. Blood pressure was monitored, and when either SAP fell below 60 mm Hg or a stable nadir in systemic arterial pressure (SAP) was maintained for 10 minutes, L-NMA was administered (20 mg/kg in 5 ml of PBS i.v. over 1 min.). In most experiments, L-arginine (400 mg/kg in 20 ml PBS) was administered ten minutes later by i.v. infusion over 2 minutes. In control experiments, dogs without prior exposure to endotoxin received L-NMA alone. To simulate the hypotension observed in dogs receiving endotoxin, one group of dogs received a continuous i.v. infusion of nitroglycerin (2 mg/ml) at a rate adjusted to maintain the SAP at 60-70 mm Hg. Nitroglycerin-treated dogs then received L-NMA (20 mg/kg) and 20 minutes later L-arginine was administered ([…]).
Statistics: Statistical significance was evaluated using Student's test and either a one-tailed or two-tailed analysis as appropriate for comparisons.

[3] = tested on: Actinomycin D-Treated L929 Cells; experiment: Cytolytic activity of rh-TNF against L929 cells; assay type: cell-based, murine; conditions: for TNF Activity: without NMMA 594.5
Method: TNF bioactivity was measured by the cytotoxicity towards murine L929 cells, in vitro. […]

[4] = tested on: ^51Cr-labeled Raji Target cells; experiment: IL-2 mediated lymphokine activated killer cell activity in vitro; assay type: cell-based, human

## CNC(=N)NCCC[C@H](N)C(=O)O [NMMA, N^ω-methyl-L-arginine]
[1]; NMMA alone to untreated dogs (n=3)
  duration of NMMA-induced bradycardia: 31 min
[1]; NMMA alone to untreated dogs (n=3), within 2 minutes after infusion
  blood pressure increase: 12 mm Hg
[1]; NMMA in dogs infused with nitroglycerin 28 µg/kg/minute IV
  blood pressure increase: 14 mm
[1]; dog with severe TNF hypotension, 4.4 mg NMMA/kg, Figure 4a
  increase in blood pressure after administration of NMMA: 80 mm Hg
[1]; dogs made hypotensive with TNF
  time to pressor effect of NMMA: ≤ 2 min
[2]; Figure 6 dog, endotoxin
  time SAP maintained greater than 100 mm Hg by second dose of L-NMA: 2 h
  time blood pressure was maintained by the first dose of L-NMA: 48 min
[2]; Figure 6 dog, endotoxin hypotension 47 mm Hg, L-NMA 20 mg/kg, within 10 min
  increase in SAP: 73 mm Hg
[2]; Study 1: Endotoxin-treated dogs (n=4), means ± S.E., same sequence, baseline 2.99 ± 0.32
  Cardiac Output: 2.03 ± 0.32 L/min
[2]; Study 1: Endotoxin-treated dogs (n=4), means ± S.E., same sequence, baseline 119.5 ± 6.0
  Heart Rate: 123.3 ± 4.8 beats/min
[2]; Study 1: Endotoxin-treated dogs (n=4), means ± S.E., same sequence, baseline 3565 ± 454
  Systemic Vascular Resistance: 4462 ± 552 dynes-sec/cm^5
[2]; Study 1: Endotoxin-treated dogs (n=4), means ± S.E., sequence endotoxin 40 µg/kg, L-NMA 20 mg/kg, 10 min later L-arginine 400 mg/kg (measured 2 min later), baseline 128.3 ± 9.4
  Systemic Arterial Pressure: 107.3 ± 9.6 mmHg
[2]; Study 1: Endotoxin-treated dogs (n=4), means ± S.E., value in brackets
  Systemic Vascular Resistance: 4.462 ± 0.552 Kg/s·cm^4
[2]; Study 2: Nitroglycerin-treated dogs (n=3), means ± S.E., baseline 3.14 ± 0.21
  Cardiac Output: 3.85 ± 0.80 L/min
[2]; Study 2: Nitroglycerin-treated dogs (n=3), means ± S.E., baseline 143.7 ± 12.1
  Heart Rate: 191.7 ± 35.0 beats/min
[2]; Study 2: Nitroglycerin-treated dogs (n=3), means ± S.E., baseline 3294 ± 74
  Systemic Vascular Resistance: 1858 ± 399 dynes-sec/cm^5
[2]; Study 2: Nitroglycerin-treated dogs (n=3), means ± S.E., continuous nitroglycerin (2 mg/ml) titrated to SAP 65 mm Hg, then L-NMA 20 mg/kg, then L-arginine, baseline 129.3 ± 10.2
  Systemic Arterial Pressure: 81.8 ± 3.5 mmHg
[2]; Study 2: Nitroglycerin-treated dogs (n=3), value in brackets
  Systemic Vascular Resistance: 1.858 ± 0.399 Kg/s·cm^4
[2]; control dogs not treated with endotoxin, L-NMA alone
  increase in SAP: 24.8 ± 2.7 mm Hg
[2]; control dogs without endotoxin (n=4), means±S.E., L-NMA, baseline 129.0±10.9
  Systemic Arterial Pressure: 153.8±11.4 mm Hg
[2]; control dogs without endotoxin (n=4), means±S.E., baseline 3.54±0.68
  Cardiac Output: 2.12 ± 0.26 L/min
[2]; control dogs without endotoxin (n=4), means±S.E., baseline 121±17.9
  Heart Rate: 82.5±6.1 beats/min
[2]; control dogs without endotoxin (n=4), means±S.E., baseline 3115±347
  Systemic Vascular Resistance: 5967±523 dynes-sec/cm^5
[2]; control dogs without endotoxin (n=4), value in brackets
  Systemic Vascular Resistance: 5.967±0.523 Kg/cm^4·s
[2]; dogs with blood pressure reduced to 65 mm Hg by continuous i.v. nitroglycerin, L-NMA 20mg/kg
  change in blood pressure: 17.1±5.0 mm Hg
[2]; endotoxin-treated dog, additional dose of L-NMA (20 mg/kg) when blood pressure began to decrease
  duration normal blood pressure maintained: at least 2 hours
[2]; endotoxin-treated dog, single i.v. dose of L-NMA (20 mg/kg)
  duration normal blood pressure restored: 30 to 60 min
[2]; endotoxin-treated dogs, L-NMA 20 mg/kg
  HR and CO: unchanged
[2]; endotoxin-treated dogs, L-NMA 20 mg/kg iv
  time to reversal of hypotension by L-NMA: ≤ 1.5 min
[2]; endotoxin-treated dogs, L-NMA 20 mg/kg, p<0.01
  increase in SAP: 47.8 ± 6.8 mm Hg
[2]; two of the four control dogs, L-NMA
  decrease in cardiac output (Δ): ≥ 1.5 L/min
[3]; [NMMA] 0.125 mM
  TNF Activity: 536.9 Units/ml
[3]; [NMMA] 0.250 mM
  TNF Activity: 538.2 Units/ml
[3]; [NMMA] 0.500 mM
  TNF Activity: 562.4 Units/ml
[3]; [NMMA] 1.0 mM
  TNF Activity: 415.7 Units/ml
[3]; murine L929 cells
  effect on the cytolytic effect of TNF towards tumor cells in vitro: did not alter
[4]; [NMMA] 2.0 mM, same effector cells, without NMMA 66.1 ± 9.5
  % Target Cell Lysis: 75.1 ± 4.1%
[4]; in vitro
  effect on the proliferation phase or the lytic phase of human LAK cells exposed to IL-2: did not alter
